From patent US20250346602A1, “LACTAM SUBSTITUTED IMIDAZOPYRIDAZINE IL-17A MODULATORS AND USES THEREOF” (DICE ALPHA, INC., priority 2022, published 2025) come the findings set out here.

Where only a bound is given, the exact number is not on record here.

This assay addresses T1, IL-17A/A (Homo sapiens, UniProt Q16552).
T1 construct: purchased Genscript Z03228
T1 sequence (Q16552 24-155): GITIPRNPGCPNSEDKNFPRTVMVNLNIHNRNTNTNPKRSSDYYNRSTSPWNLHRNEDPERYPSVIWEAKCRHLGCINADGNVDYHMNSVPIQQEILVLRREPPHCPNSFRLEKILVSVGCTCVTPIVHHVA
The assay is described as follows: IL-17A/A HEK-Blue cell assay. The format is cell-based. To be noted: HEK-Blue IL-17A reporter cell line (HEK 293), IL-17A/A stimulation, 20 hours incubation, SEAP read at A630. The gist of the method:
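IC50 came from a 4-parameter fit of SEAP read at A630 (Quanti-Blue). Compound was titrated to a top final concentration of 10, 1 or 0.3 uM with 0.1% final DMSO and added just before IL-17A/A. Incubation lasted 20 hours in HEK293 cells engineered with IL-17RA, IL-17RC, Act1 and an NFκB-SEAP reporter.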

For the compound `CCn1nccc1C(=O)N[C@H](c1cn2nc(CC3C[C@@H](C(F)(F)F)CNC3=O)c(C(C)OC)cc2n1)C1CCC(F)(F)CC1` (stereo partly drawn) [Compound 183, N-((1S)-(4,4-difluorocyclohexyl)(7-(1-methoxyethyl)-6-(((5R)-2-oxo-5-(trifluoromethyl)piperidin-3-yl)methyl)imidazo[1,2-b]pyridazin-2-yl)methyl)-1-ethyl-1H-pyrazole-5-carboxamide], the IC50 – broadly, the concentration at which inhibition is half-maximal – was below 100 nM.
The figure for `CC(C)n1nccc1C(=O)N[C@H](c1cn2nc(CC3C[C@@H](C(F)(F)F)CNC3=O)ccc2n1)C1CCC(F)(F)CC1` (stereo partly drawn) [Compound 111, N-((1S)-(4,4-difluorocyclohexyl)(6-(((5R)-2-oxo-5-(trifluoromethyl)piperidin-3-yl)methyl)imidazo[1,2-b]pyridazin-2-yl)methyl)-1-isopropyl-1H-pyrazole-5-carboxamide] is below 100 nM; for `CC(C)c1nonc1C(=O)N[C@H](c1cn2nc(CC3C[C@@H](C(F)(F)F)CNC3=O)ccc2n1)[C@H]1CCCC(F)(F)C1` (stereo partly drawn) [Compound 150, N-((1S)—((S)-3,3-difluorocyclohexyl)(6-(((5R)-2-oxo-5-(trifluoromethyl)piperidin-3-yl)methyl)imidazo[1,2-b]pyridazin-2-yl)methyl)-4-isopropyl-1,2,5-oxadiazole-3-carboxamide] it is below 100 nM.
With `O=C(N[C@H](c1cn2nc(CC3C[C@@H](C(F)(F)F)CNC3=O)ccc2n1)C1CCC(F)(F)CC1)c1nonc1CC(F)(F)F` (stereo partly drawn) [Compound 116, N-((1S)-(4,4-difluorocyclohexyl)(6-(((5R)-2-oxo-5-(trifluoromethyl)piperidin-3-yl)methyl)imidazo[1,2-b]pyridazin-2-yl)methyl)-4-(2,2,2-trifluoroethyl)-1,2,5-oxadiazole-3-carboxamide], the IC50 lay within 100 to 1000 nM.
Consider `CCn1nccc1C(=O)N[C@H](c1cn2nc(CC3C[C@@H](C(F)(F)F)NC3=O)ccc2n1)C1CCCCCC1` (single isomer, unassigned) [Compound 5], for which the IC50 is below 100 nM.
In the case of `Cn1nccc1C(=O)N[C@H](c1cn2nc(CC3C[C@@H](C(F)(F)F)CNC3=O)ccc2n1)[C@H]1CC[C@H](C)CC1` (stereo partly drawn) [Compound 162, 1-methyl-N-((1S)-((1R.4S)-4-methylcyclohexyl)(6-(((5R)-2-oxo-5-(trifluoromethyl)piperidin-3-yl)methyl)imidazo[1,2-b]pyridazin-2-yl)methyl)-1H-pyrazole-5-carboxamide] it was 100 to 1000 nM; in that of `C[C@H]1CC[C@H]([C@H](NC(=O)c2conc2C2CC2)c2cn3nc(CC4C[C@@H](C(F)(F)F)CNC4=O)ccc3n2)CC1` (stereo partly drawn) [Compound 161, 3-cyclopropyl-N-((1S)-((1R.4S)-4-methylcyclohexyl)(6-(((5R)-2-oxo-5-(trifluoromethyl)piperidin-3-yl)methyl)imidazo[1,2-b]pyridazin-2-yl)methyl)isoxazole-4-carboxamide], below 100 nM; in that of `Cc1nonc1C(=O)N[C@H](c1cn2nc(CC3C[C@@H](C(F)(F)F)CNC3=O)ccc2n1)[C@H]1CC[C@H](C)CC1` (stereo partly drawn) [Compound 165, 4-Methyl-N-((1S)-((1R.4S)-4-methylcyclohexyl)(6-(((5R)-2-oxo-5-(trifluoromethyl)piperidin-3-yl)methyl)imidazo[1,2-b]pyridazin-2-yl)methyl)-1,2,5-oxadiazole-3-carboxamide], 100 to 1000 nM.
In the case of `O=C(N[C@H](c1cn2nc(CC3C[C@@H](C(F)(F)F)CNC3=O)ccc2n1)C1CCC(F)(F)CC1)c1nonc1C1CC1` (stereo partly drawn) [Compound 104, 4-cyclopropyl-N-((1S)-(4,4-difluorocyclohexyl)(6-(((5R)-2-oxo-5-(trifluoromethyl)piperidin-3-yl)methyl)imidazo[1,2-b]pyridazin-2-yl)methyl)-1,2,5-oxadiazole-3-carboxamide] it was below 100 nM; in that of `CCn1nccc1C(=O)N[C@H](c1cn2nc(CC3CC(F)(F)CNC3=O)c(C)cc2n1)C1CCC(F)(F)CC1` (single isomer, unassigned) [Compound 77], above 1000 nM; in that of `CCn1nccc1C(=O)N[C@H](c1cn2nc(CC3C[C@@H](C(F)(F)F)CNC3=O)ccc2n1)C1CC(C2CC2)(C2CC2)C1` (stereo partly drawn) [Compound 172, N-((1S)-(3,3-dicyclopropylcyclobutyl)(6-(((5R)-2-oxo-5-(trifluoromethyl)piperidin-3-yl)methyl)imidazo[1,2-b]pyridazin-2-yl)methyl)-1-ethyl-1H-pyrazole-5-carboxamide], above 1000 nM.
The figure for `CCn1nccc1C(=O)NC(c1cn2nc(CC3C[C@@H](C(F)(F)F)CNC3=O)ccc2n1)C1CCC2CC2CC1` (single isomer, unassigned) [Compound 175] is 100 to 1000 nM.
On to `CCn1nccc1C(=O)N[C@H](c1cn2nc(CC3C[C@@H](C(F)(F)F)CNC3=O)ccc2n1)[C@@H]1CCCC(F)(F)C1` (stereo partly drawn) [Compound 143, N-((1S)—((R)-3,3-difluorocyclohexyl)(6-(((5R)-2-oxo-5-(trifluoromethyl)piperidin-3-yl)methyl)imidazo[1,2-b]pyridazin-2-yl)methyl)-1-ethyl-1H-pyrazole-5-carboxamide], for which the IC50 is below 100 nM.
Regarding `CCn1nccc1C(=O)N[C@H](c1cn2nc(CC3C[C@@H](C(F)(F)F)CNC3=O)ccc2n1)C1CCC(F)(F)CC1` (stereo partly drawn) [Compound 193, N-((1S)-(4,4-difluorocyclohexyl)(6-(((5R)-2-oxo-5-(trifluoromethyl)piperidin-3-yl)methyl)imidazo[1,2-b]pyridazin-2-yl)methyl)-1-ethyl-1H-pyrazole-5-carboxamide], the IC50 is above 1000 nM.
Consider `CCn1nccc1C(=O)N[C@H](c1cn2nc(CC3CC(C)(F)CNC3=O)ccc2n1)C(C1CC1)C1CC1` (mixture of isomers) [Compound 40, N-((1S)-2,2-dicyclopropyl-1-(6-((5-fluoro-5-methyl-2-oxopiperidin-3-yl)methyl)imidazo[1,2-b]pyridazin-2-yl)ethyl)-1-ethyl-1H-pyrazole-5-carboxamide], for which the IC50 was above 1000 nM.
As to `CC[C@@H]1CC(Cc2ccc3nc([C@@H](NC(=O)c4ccnn4CC)[C@H]4CC[C@H](C)CC4)cn3n2)C(=O)N1` (stereo partly drawn) [Compound 59, 1-ethyl-N-((1S)-(6-(((5R)-5-ethyl-2-oxopyrrolidin-3-yl)methyl)imidazo[1,2-b]pyridazin-2-yl)((1r,4S)-4-methylcyclohexyl)methyl)-1H-pyrazole-5-carboxamide], the IC50 lay within 100 to 1000 nM.
Regarding `O=C(N[C@H](c1cn2nc(C[C@H]3C[C@@H](C(F)(F)F)NC3=O)ccc2n1)C1CCC(F)(F)CC1)c1nonc1C1CC1` (single isomer, unassigned) [Compound 19], the IC50 fell in the range of 100 to 1000 nM.
In the case of `CCn1nccc1C(=O)N[C@H](c1cn2nc(CC3C[C@@H](C(F)(F)F)CNC3=O)ccc2n1)C1CCCCC1` (stereo partly drawn) [Compound 191, N-((1S)-cyclohexyl(6-(((5R)-2-oxo-5-(trifluoromethyl)piperidin-3-yl)methyl)imidazo[1,2-b]pyridazin-2-yl)methyl)-1-ethyl-1H-pyrazole-5-carboxamide] it was 100 to 1000 nM.
In the case of `CCn1nccc1C(=O)N[C@H](c1cn2nc(C(C)C3C[C@@H](C(F)(F)F)CNC3=O)ccc2n1)C(C1CC1)C1CC1` (single isomer, unassigned) [Compound 56] it was above 1000 nM; in that of `CCn1nccc1C(=O)N[C@H](c1cn2nc(CC3CC(C(F)(F)F)CNC3=O)ccc2n1)C1CCCCCC1` (some centres unmarked) [Compound 3, N-((1 S)-cycloheptyl(6-((2-oxo-5-(trifluoromethyl)piperidin-3-yl)methyl)imidazo[1,2-b]pyridazin-2-yl)methyl)-1-ethyl-1H-pyrazole-5-carboxamide], below 100 nM.
The figure for `O=C(N[C@H](c1cn2nc(CC3C[C@@H](C(F)(F)F)CNC3=O)ccc2n1)C1CCC(F)(F)CC1)c1conc1CF` (stereo partly drawn) [Compound 119, N-((1S)-(4,4-difluorocyclohexyl)(6-(((5R)-2-oxo-5-(trifluoromethyl)piperidin-3-yl)methyl)imidazo[1,2-b]pyridazin-2-yl)methyl)-3-(fluoromethyl)isoxazole-4-carboxamide] is 100 to 1000 nM; for `O=C(N[C@H](c1cn2nc(CC3C[C@@H](C(F)(F)F)CNC3=O)ccc2n1)C1CCC(F)(F)CC1)c1nonc1C(F)(F)F` (stereo partly drawn) [Compound 113, N-((1S)-(4,4-difluorocyclohexyl)(6-(((5R)-2-oxo-5-(trifluoromethyl)piperidin-3-yl)methyl)imidazo[1,2-b]pyridazin-2-yl)methyl)-4-(trifluoromethyl)-1,2,5-oxadiazole-3-carboxamide] it is 100 to 1000 nM; for `O=C(N[C@H](c1cn2nc(CC3C[C@H](C(F)(F)F)CNC3=O)ccc2n1)[C@H]1CCCC(F)(F)C1)c1nonc1C1CC1` (stereo partly drawn) [Compound 155, 4-cyclopropyl-N—((S)-((S)-3,3-difluorocyclohexyl)(6-(((5S)-2-oxo-5-(trifluoromethyl)piperidin-3-yl)methyl)imidazo[1,2-b]pyridazin-2-yl)methyl)-1,2,5-oxadiazole-3-carboxamide] it is below 100 nM.
For `O=C(N[C@H](c1cn2nc(CC3C[C@@H](C(F)(F)F)CNC3=O)ccc2n1)C1CCC(F)(F)CC1)c1conc1C1(C(F)(F)F)CC1` (stereo partly drawn) [Compound 138, N-((1S)-(4,4-difluorocyclohexyl)(6-(((5R)-2-oxo-5-(trifluoromethyl)piperidin-3-yl)methyl)imidazo[1,2-b]pyridazin-2-yl)methyl)-3-(1-(trifluoromethyl)cyclopropyl)isoxazole-4-carboxamide], the IC50 was 100 to 1000 nM.
The figure for `CCn1nccc1C(=O)NC(c1cn2nc(CC3C[C@@H](C(F)(F)F)CNC3=O)ccc2n1)C1CCC2CC2CC1` (single isomer, unassigned) [Compound 174] is above 1000 nM; for `CCn1nccc1C(=O)N[C@H](c1cn2ncc(CC3C[C@H](C(F)(F)F)CNC3=O)cc2n1)C(C1CC1)C1CC1` (single isomer, unassigned) [Compound 209] it is above 1000 nM.
